In patent publication US9879050B2, “Substituted urea depsipeptide analogs as activators of the CLPP endopeptidase” (priority 2013, dated 2018):
Values after ≈ are worked out from the molar mass of the structure shown. Read-outs that look alike come from different tables or passages of the source. *1 amine or outer side, *2 acyl side, *3 side chain or, on linkers, in order; H or OH if unused. Where a SMILES comes first, the peptide text is derived from it. Bridges are numbered along the chain shown (N, C = ends). [ ]: non-standard residue; d: D form. The star is where a group is joined. Phe(3,5-F2) = N[C@@H](Cc1cc(F)cc(F)c1)C(=O)O; Pro(4S-Me) = C[C@@H]1CN[C@H](C(=O)O)C1; NH(4-Et-phenyl) = CCc1ccc(N*)cc1; aThr = C[C@H](O)[C@H](N)C(=O)O; Pip = O=C(O)[C@@H]1CCCCN1; CO = O=C([*:1])[*:2]

Legend:
[1] = target: T1, S. aureus ClpP (Sa-ClpP) (Staphylococcus aureus, UniProt Q2G036); assay: ClpP activation, casein-BODIPY digestion assay (first described method); type: biochemical; details: first described ClpP activation assay (**); 10 μM saClpP, 25 μg/ml BODIPY FL casein, 37° C.; read-out: ClpP Activation EC50
T1 construct: made in house; host or cells: E. coli BL21 (DE3)
T1 sequence (Q2G036 whole entry): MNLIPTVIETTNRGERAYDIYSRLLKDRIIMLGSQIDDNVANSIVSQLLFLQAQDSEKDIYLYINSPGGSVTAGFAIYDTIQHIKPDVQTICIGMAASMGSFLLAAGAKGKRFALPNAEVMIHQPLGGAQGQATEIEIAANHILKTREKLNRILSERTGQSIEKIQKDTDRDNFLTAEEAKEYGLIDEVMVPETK
Protocol: The compounds were assayed in a casein digestion assay in order to determine their effect on ClpP activation. Briefly, the assay was carried out using S. aureus ClpP (“Sa-ClpP”) overexpressed in E. coli BL21 (DE3) and purified in a two-step process. Purity of the protein was assessed through SDS PAGE analysis. EC50 evaluations were conducted in triplicate in a 20 μl assay format using a method adapted from Maurizi et al. (Methods Enzymol. (1994) 244:314-331.). Each well contained 10 μM saClpP, 25 μg/ml BODIPY FL casein (Invitrogen Corporation, San Diego, Calif.), and test compound in concentrations ranging between 0-100 μM in assay buffer (50 mM Tris pH 8, 200 mM KCl, and 1 mM TCEP). The reaction took place at 37° C. Fluorescence (excitation 485 nm; emission 528 nm) was measured in five minute intervals over a 45 min period using a BioTek HT fluorescence microplate reader (BioTek Instruments, Inc., Winooski, Vt.). Velocity of each reaction was calculated and data was fit to a dose response curve using GraphPad Prism® software (GraphPad Software, Inc., La Jolla, Calif.). EC50 is the effective concentration of compound which causes 50% activation of S. aureus ClpP in the foregoing BODIPY FL casein assay.

[2] = target: T2, Sa-ClpP (Staphylococcus aureus, UniProt Q2G036); assay: ADEP displacement fluorescence polarization assay; type: binding, S. aureus; details: 1 μM Sa-ClpP, 50 nM FP probe ADEP 2591; read-out: ADEP Displacement IC50
T2 construct: made in house; host or cells: E. coli BL21 (DE3)
T2 sequence (Q2G036 whole entry): as above
How it was run: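 Displacement of TAMRA-labelled ADEP 2591 probe (50 nM) from 1 μM Sa-ClpP, pre-equilibrated 1 h in Tris·HCl pH 8.0 with 2% DMSO, then 120 min at room temperature with compound, triplicate. Polarization (mP) read ex 530/em 579 nm, normalised to 20 μM ADEP 2378 and DMSO controls; four-parameter fit.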

[3] = Cytotoxicity assay, CellTiter-Glo cell viability; type: cell-based; details: African green monkey
How it was run: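 Vero cells seeded overnight at 37 °C in DMEM with 10% FBS, then exposed to serial dilutions of compound for 72 h. Viability read by CellTiter-Glo luminescence; IC50 from duplicates, given as the range of two independent experiments.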

[4] = target: T2, Sa-ClpP; assay: ClpP activation, EnzCheck Protease Assay with Bodipy-FL casein (second described method); type: biochemical, S. aureus; details: read-out: ClpP Activation EC50 (converted)
How it was run: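 Sa-ClpP (2 μM in master mix) with Bodipy-FL casein (2 μM in master mix) in Tris-HCl pH 8.0, 0.01% Triton X-100, compounds in 2% DMSO, triplicate. Fluorescence (ex 485/em 520 nm) followed 30 min; degradation slopes normalized to ADEP4 and DMSO controls, EC50 and % activation by four-parameter fit.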

[5] = test system: S. aureus USA 300 ΔClpP; assay: Minimal inhibitory concentration, microbroth dilution; type: cell-based, Staphylococcus aureus; details: ClpP inactivated strain
How it was run: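 Compound was diluted twofold in the appropriate broth. Bacterial suspension (approx. 10^5 cfu/mL) was then added in equal volume, giving a maximum test concentration of 200 μM. After aerobic overnight incubation at 37 °C, wells were inspected visually for growth.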

[6] = test system: S. pneumoniae R6; assay: as above; type: cell-based; details: Streptococcus pneumoniae, R6, read-out: Minimal Inhibitory Concentration S. pneumoniae R6
How it was run: (§1)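 Twofold serial dilutions in broth per CLSI M7-A7 microbroth dilution, incubated aerobically overnight at 37° C. MIC read visually as lowest concentration preventing bacterial growth.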

[7] = test system: S. pyogenes ATCC 700294; assay: as above; type: cell-based; details: Streptococcus pyogenes, ATCC700294, read-out: Minimal Inhibitory Concentration S. pyogenes ATCC 700294
How it was run: as §1

[8] = test system: B. subtilis ATCC 23857; assay: as above; type: cell-based; details: Bacillus subtilis, ATCC23857, read-out: Minimal Inhibitory Concentration B. subtilis ATCC 23857
Protocol: (§2) Minimal inhibitory concentrations (“MICs”) were determined using the microbroth dilution method according to Clinical Laboratory Standards Institute (CLSI; National, C.F. C. L. S., Methods for Dilution Antimicrobial Susceptibility Tests for Bacteria Grow aerobically-Seventh Edition: Approved Standard M7-A7, CLSI, Wayne, Pa., USA, 2008) and were read by visual inspection. Two fold serial dilutions of test compound in 100 μL of the appropriate broth media were first prepared in 96-well round bottom microtiter plates (Nalgene Nunc International, Rochester, N.Y., USA). An equivalent volume (100 μL) of bacterial broth inocula containing approximately 10^5 bacterial cfu/mL was added to each well to give final concentrations of test compound starting at 200 μM. The plates were then incubated aerobically at 37° C. All strains were incubated overnight. After incubations, in all cases the MIC was recorded as the lowest concentration of drug that prevented bacterial growth. The bacterial strains for which MIC was determined as described in Table 4.

[9] = test system: S. aureus ATCC 29213; assay: as above; type: cell-based; details: Staphylococcus aureus, ATCC29213, read-out: Minimal Inhibitory Concentration S. aureus ATCC 29213
Protocol: as §2

[10] = Vero cells, 72 hours, read-out: Cytotoxicity IC50

| Compound | EC50 [1] [µM] | IC50 [2] [µM] | IC50 at 72 h [3] [µM] | EC50 [4] [µM] | IC50 at 72 h [3, 10] [µM] | Minimal Inhibitory Concentration S. aureus USA 300 ΔClpP [5] [µM] | MIC [6] [µM] | MIC [7] [µM] | MIC [8] [µM] | MIC [9] [µM] | IC50 at 72 h ([3]; Vero kidney epithelial cells (ATCC CCL-81), Vero cells, 72 hours, read-out: Cytotoxicity IC50) [µM] |
| --- | --- | --- | --- | --- | --- | --- | --- | --- | --- | --- | --- |
| C[C@@H]1C[C@H]2C(=O)OC[C@H](NC(=O)[C@H](Cc3cc(F)cc(F)c3)NC(=O)Nc3ccc(OC(F)(F)F)cc3)C(=O)N3CCC[C@H]3C(=O)N3CCCC[C@H]3C(=O)N[C@@H](C)C(=O)N2C1 [Compound 13, (S)-3-(3,5-Difluorophenyl)-N-((2R,6S,8aS,14aS,20S,23aS)-2,6-Dimethyl-5,8,14,19,23-Pentaoxooctadecahydro-1H,5H,14H,19H-Pyrido[2,1-I]Dipyrrolo[2,1-C:2′,1′-L][1]Oxa[4,7,10,13]Tetraazacyclohexadecin-20-Yl)-2-(3-(4-(Trifluoromethoxy)Phenyl)Ureido)Propanamide] | 3.2 ± 0.6 | 5.69 ± 0.5 | 70.9 ± 8.9 | – | – | – | – | – | – | – | – |
| Cc1ccc(NC(=O)N[C@@H](Cc2cc(F)cc(F)c2)C(=O)N[C@@H]2C(=O)N3CCCC3C(=O)N(C)[C@@H](C)C(=O)N[C@@H](C)C(=O)N3C[C@@H](C)CC3C(=O)O[C@H]2C)cc1 (stereo partly drawn) [Compound 26, (2S)-3-(3,5-Difluorophenyl)-N-((2S,6S,9S,11aS,17S,18S)-2,6,9,10,18-Pentamethyl-5,8,11,16,20-Pentaoxohexadecahydro-1H,5H,16H-Dipyrrolo[2,1-C:2′,1′-L][1]Oxa[4,7,10,13]Tetraazacyclohexadecin-17-Yl)-2-(3-(P-Tolyl)Ureido)Propanamide] | – | 8.2 ± 0.3 | – | 0.29 ± 0.01 | 40.5 ± 3.8 | 200 | 0.125 (≈ 0.0977 µg/mL) | 0.5 (≈ 0.391 µg/mL) | 0.03 (≈ 0.0235 µg/mL) | 0.2 (≈ 0.156 µg/mL) | – |
| CCc1ccc(NC(=O)N[C@@H](Cc2cc(F)cc(F)c2)C(=O)N[C@H]2COC(=O)[C@@H]3C[C@@H](C)CN3C(=O)[C@H](C)NC(=O)[C@@H]3CCCCN3C(=O)[C@@H]3CCCN3C2=O)cc1 [Compound 14, (S)-3-(3,5-Difluorophenyl)-N-((2R,6S,8aS,14aS,20S,23aS)-2,6-Dimethyl-5,8,14,19,23-Pentaoxooctadecahydro-1H,5H,14H,19H-Pyrido[2,1-I]Dipyrrolo[2,1-C:2′,1′-L][1]Oxa[4,7,10,13]Tetraazacyclohexadecin-20-Yl)-2-(3-(4-Ethylphenyl)Ureido)Propanamide] | 2.5 ± 0.6 | 61.3 ± 5 | 70.5 ± 13.5 | – | – | – | – | – | – | – | – |
| CCc1ccc(NC(=O)N[C@@H](Cc2cc(F)cc(F)c2)C(=O)N[C@@H]2C(=O)N3CCC[C@H]3C(=O)N3CCCC[C@H]3C(=O)N[C@@H](C)C(=O)N3C[C@@H](C)C[C@H]3C(=O)O[C@H]2C)cc1 [Compound 21, (S)-3-(3,5-Difluorophenyl)-2-(3-(4-Ethylphenyl)Ureido)-N-((2R,6S,8aS,14aS,20S,21S,23aS)-2,6,21-Trimethyl-5,8,14,19,23-Pentaoxooctadecahydro-1H,5H,14H,19H-Pyrido[2,1-I]Dipyrrolo[2,1-C:2′,1′-L][1]Oxa[4,7,10,13]Tetraazacyclohexadecin-20-Yl)Propanamide] ({NH(4-Et-phenyl)-CO}-[Phe(3,5-F2)][aThr]P[Pip]A[Pro(4S-Me)]; ester 2-C) | 1.1 ± 0.3 | 7.3 ± 0.3 | – | 0.33 | – | – | – | – | – | – | 68.5 ± 6.6 |
| CCc1cccc(NC(=O)N[C@@H](Cc2ccccc2)C(=O)N[C@H]2COC(=O)[C@@H]3C[C@@H](C)CN3C(=O)[C@H](C)NC(=O)[C@@H]3CCCCN3C(=O)[C@@H]3CCCN3C2=O)c1 [Compound 10, (S)—N-((2R,6S,8aS,14aS,20S,23aS)-2,6-Dimethyl-5,8,14,19,23-Pentaoxooctadecahydro-1H,5H,14H,19H-Pyrido[2,1-1]Dipyrrolo[2,1-C:2′,1′-L][1]Oxa[4,7,10,13]Tetraazacyclohexadecin-20-Yl)-2-(3-(3-Ethylphenyl)Ureido)-3-Phenylpropanamide] | 1.5 ± 0.6 | 13.6 ± 1.7 | 74.8 ± 4.6 | 0.9 ± 0.018 | – | – | – | – | – | – | – |
| Cc1ccc(NC(=O)N[C@@H](Cc2cc(F)cc(F)c2)C(=O)N[C@@H]2C(=O)N3CCCC3C(=O)N3CCOCC3C(=O)N[C@@H](C)C(=O)N3C[C@@H](C)CC3C(=O)O[C@H]2C)cc1 (stereo partly drawn) [Compound 33, (S)-3-(3,5-Difluorophenyl)-2-(3-(P-Tolyl)Ureido)-N-((6aS,12S,13S,1 5aS,17S,21S,23aS)-13,17,21-Trimethyl-6,11,15,20,23-Pentaoxooctadecahydro-6H,11H,15H-[1,4]Oxazino[3,4-I]Dipyrrolo[2,1-C:2′,1′-L][1]Oxa[4,7,10,13]Tetraazacyclohexadecin-12-Yl)Propanamide] | – | 5.6 ± 0.3 | – | 0.39 ± 0.02 | 41 ± 4.3 | 200 | 0.098 (≈ 0.0794 µg/mL) | 0.39 (≈ 0.316 µg/mL) | 0.2 (≈ 0.162 µg/mL) | 0.2 (≈ 0.162 µg/mL) | – |
| Cc1ccc(NC(=O)N[C@@H](Cc2cc(F)cc(F)c2)C(=O)N[C@@H]2C(=O)N3CCCC3C(=O)N3CCCCC3C(=O)N[C@@H](C)C(=O)N3C[C@H](C)CC3C(=O)O[C@H]2C)cc1 (stereo partly drawn) [Compound 39, (S)-3-(3,5-Difluorophenyl)-2-(3-(P-Tolyl)Ureido)-N-((2R,6S,8aS,14aS,20S,21S,23aS)-2,6,21-Trimethyl-5,8,14,19,23-Pentaoxooctadecahydro-1H,5H,14H,19H-Pyrido[2,1-I]Dipyrrolo[2,1-C:2′,1′-L][1]Oxa[4,7,10,13]Tetraazacyclohexadecin-20-Yl)Propanamide] | – | 9 ± 0.4 | – | 0.48 ± 0.03 | 40 ± 4.1 | 100 | 0.05 (≈ 0.0404 µg/mL) | 0.2 (≈ 0.162 µg/mL) | 0.02 (≈ 0.0162 µg/mL) | 0.05 (≈ 0.0404 µg/mL) | – |
| Cc1ccc(NC(=O)N[C@@H](Cc2cc(F)cc(F)c2)C(=O)N[C@@H]2C(=O)N3CCCC3C(=O)N(C)[C@@H](C)C(=O)N[C@@H](C)C(=O)N3CCCC3C(=O)O[C@H]2C)cc1 (stereo partly drawn) [Compound 25, (2S)-3-(3,5-Difluorophenyl)-N-((6S,9S,11aS,17S,18S)-6,9,10,18-Tetramethyl-5,8,11,16,20-Pentaoxohexadecahydro-1H,5H,16H-Dipyrrolo[2,1-C:2′,1′-L][1]Oxa[4,7,10,13]Tetraazacyclohexadecin-17-Yl)-2-(3-(P-Tolyl)Ureido)Propanamide] | – | 8.9 ± 0.3 | – | 0.48 ± 0.03 | 10.8 ± 1 | 200 | 0.254 (≈ 0.195 µg/mL) | 1 (≈ 0.768 µg/mL) | 0.02 (≈ 0.0154 µg/mL) | 0.78 (≈ 0.599 µg/mL) | – |
